Source: the NIST ThermoML archive (doi:10.1016/j.jct.2011.07.021)
Numbers after ± are expanded uncertainties.

Columns and labels:
[1] = 101.33 kPa, Liquid, Vibrating tube method
[2] = refractive index (Na D-line) (dimensionless); conditions: 101.33 kPa, Liquid, Standard Abbe refractometry
[3] = relative permittivity at zero frequency (dimensionless); conditions: 101.33 kPa, Liquid, Parallel plate capacitor
[4] = refractive index (Na D-line) (dimensionless); xn = mol fraction of the nth substance listed; conditions: 101 kPa, Liquid, Standard Abbe refractometry
[5] = relative permittivity at zero frequency (dimensionless); xn = mol fraction of the nth substance listed; conditions: 101 kPa, Liquid, Parallel plate capacitor

| Compound | mass density ([1]; 298.2 K) [kg/m3] | mass density ([1]; 308.2 K) [kg/m3] | mass density ([1]; 318.2 K) [kg/m3] | refractive index ([2]; 298.2 K) | refractive index ([2]; 308.2 K) | refractive index ([2]; 318.2 K) | relative permittivity at zero frequency ([3]; 298.2 K) | relative permittivity at zero frequency ([3]; 308.2 K) | relative permittivity at zero frequency ([3]; 318.2 K) | further results |
| --- | --- | --- | --- | --- | --- | --- | --- | --- | --- | --- |
| C1COCCO1 [1,4-dioxane] | 1027.9 ± 0.27 | 1016.11 ± 0.26 | 1005 ± 0.3 | 1.4201 ± 0.0004 | 1.4142 ± 0.0004 | 1.4084 ± 0.0004 | 2.228 ± 0.01 | 2.21 ± 0.01 | 2.187 ± 0.01 | – |
| CCC(O)CO (centres undefined) [1,2-butanediol] | 998.67 ± 0.85 | 991.15 ± 0.84 | 983.55 ± 0.83 | 1.4372 ± 0.0005 | 1.433 ± 0.0005 | 1.4288 ± 0.0005 | 22.143 ± 0.037 | 20.365 ± 0.036 | 18.661 ± 0.036 | – |
| C1COCCO1 [1,4-dioxane] + CCC(O)CO | – | – | – | – | – | – | – | – | – | refractive index ([4]; 298.2 K, x2 = 0): 1.4201 ± 0.0004; refractive index ([4]; 308.2 K, x2 = 0): 1.4142 ± 0.0004; refractive index ([4]; 318.2 K, x2 = 0): 1.4084 ± 0.0004; relative permittivity at zero frequency ([5]; 298.2 K, x2 = 0): 2.228 ± 0.01; relative permittivity at zero frequency ([5]; 308.2 K, x2 = 0): 2.209 ± 0.01; relative permittivity at zero frequency ([5]; 318.2 K, x2 = 0): 2.187 ± 0.01 |
| CCCCC(CC)CO (centres undefined) [2-ethyl-1-hexanol] | 830.62 ± 0.22 | 823.1 ± 0.22 | 814.91 ± 0.23 | 1.4293 ± 0.0004 | 1.4252 ± 0.0004 | 1.4213 ± 0.0004 | 7.353 ± 0.022 | 6.361 ± 0.021 | 5.522 ± 0.02 | – |
| CCC(O)CO (centres undefined) [1,2-butanediol] + CCCCC(CC)CO | – | – | – | – | – | – | – | – | – | refractive index ([4]; 298.2 K, x1 = 1): 1.4372 ± 0.0005; refractive index ([4]; 308.2 K, x1 = 1): 1.4312 ± 0.0005; refractive index ([4]; 318.2 K, x1 = 1): 1.4281 ± 0.0005; relative permittivity at zero frequency ([5]; 298.2 K, x1 = 1): 22.143 ± 0.037; relative permittivity at zero frequency ([5]; 308.2 K, x1 = 1): 20.365 ± 0.036; relative permittivity at zero frequency ([5]; 318.2 K, x1 = 1): 18.661 ± 0.036 |
